# Counter-ions that a name gives are not always drawn. Like-named read-outs stand apart in the source and are kept apart here.
# System: Escherichia coli ATCC 25922
# Assay: 50% growth inhibitory concentration (IC50) determination, Iso-Sensitest broth dilution
# Type: cell-based
# Conditions: strain Escherichia coli ATCC 25922, 10-point broth dilution, optical density at 600 nm over 16 h, read-out: Escherichia coli growth inhibition IC50
# Description: 50% Growth Inhibitory Concentration (IC50) Determination
# The in vitro antimicrobial activity of the compounds was determined according to the following procedure:
# The assay used a 10-point Iso-Sensitest broth dilution method to measure quantitatively the in vitro
# ATCC 25922, Acinetobacter baumannii ATCC 17961, Klebsiella pneumoniae ATCC 43816 and Staphylococcus aureus ATCC 29213.
# Stock compounds in DMSO were serially twofold diluted (e.g. range from 50 to 0.097 μM final concentration) in 384 wells microtiter plates and inoculated with 50 μL of the bacterial suspension in Iso-
# ell of 50 μL/well. Microtiter plates were incubated at 35±2° C.
# Bacterial cell growth was determined with the measurement of optical density at λ=600 nm each 20 minutes over a time course of 16 h.
# Growth inhibition was calculated during the logarithmic growth of the bacterial cells with
# Table 1 provides the 50% growth inhibitory concentrations (IC50) in micromoles per liter of the compounds of present invention obtained against the strain Escherichia coli ATCC 25922.
# [1] = Escherichia coli, ATCC25922, 16 h
SMILES,IC50,IC50 [1]
"CNC(=O)COc1cc(C#N)c2c(c1C)CC(CNCCC1CN(c3cnc4c(n3)NC(=O)CO4)C(=O)O1)C2 (stereo not drawn) [Example 383, 2-[[7-cyano-4-methyl-2-[[2-[2-oxo-3-(3-oxo-4H-pyrazino[2,3-b][1,4]oxazin-6-yl)-1,3-oxazolidin-5-yl]ethylamino]methyl]-2,3-dihydro-1H-inden-5-yl]oxy]-N-methylacetamide]",–,139 nM
"NC1c2cccc(Cl)c2CC1CNCCc1cn(-c2ccc3c(n2)NC(=O)CO3)c(=O)o1 (racemic) [Example 170, 6-[2-oxo-5-[2-[[rac-1,2-trans-1-amino-4-chloro-2,3-dihydro-1H-inden-2-yl]methylamino]ethyl]-1,3-oxazol-3-yl]-4H-pyrido[3,2-b][1,4]oxazin-3-one]",–,< 97.7 nM
"N#Cc1cccc2c1CC(NC1CCC3(CN(c4ccc5c(n4)NC(=O)CO5)C(=O)O3)C(N)C1)C2 (racemic) [Example 241, 2-[[rac-5,6-trans-5,8-cis-6-Amino-2-oxo-3-(3-oxo-4H-pyrido[3,2-b][1,4]oxazin-6-yl)-1-oxa-3-azaspiro[4.5]decan-8-yl]amino]-2,3-dihydro-1H-indene-4-carbonitrile; formic acid]",509 nM,–
"Cc1ncc(F)c2c1CC(NCC(O)CC1CN(c3cnc4c(n3)NC(=O)CO4)C(=O)O1)C2 (single isomer, unassigned; isomer d) [Example 316, 6-[2-Oxo-5-[3-[(4-fluoro-1-methyl-6,7-dihydro-5H-cyclopenta[c]pyridin-6-yl)amino]-2-hydroxypropyl]-1,3-oxazolidin-3-yl]-4H-pyrazino[2,3-b][1,4]oxazin-3-one; formic acid, Isomer D]",957 nM,–
"NC(=O)COc1cc(F)c2c(c1)CC(CNCCc1cn(-c3cnc4c(n3)NC(=O)CO4)c(=O)o1)C2 (stereo not drawn) [Example 306, 2-[[7-fluoro-2-[[2-[2-oxo-3-(3-oxo-4H-pyrazino[2,3-b][1,4]oxazin-6-yl)-1,3-oxazol-5-yl]ethylamino]methyl]-2,3-dihydro-1H-inden-5-yl]oxy]acetamide; formic acid]",–,< 97.7 nM
"O=C1COc2ncc(N3CC(CCNCC4Cc5cc(OC6COC6)cc(F)c5C4)OC3=O)nc2N1 (stereo not drawn) [Example 323, 6-[5-[2-[[4-fluoro-6-(oxetan-3-yloxy)-2,3-dihydro-1H-inden-2-yl]methylamino]ethyl]-2-oxo-1,3-oxazolidin-3-yl]-4H-pyrazino [2,3-b] [1,4]oxazin-3-one]",–,250 nM
"Cc1c(OCC2CNC(=O)CN2)nc(C#N)c2c1CC(CN1CCC3(CC1)CN(c1ccc4c(n1)NC(=O)CO4)C(=O)O3)C2 (stereo not drawn) [Example 220, 4-methyl-6-((2-oxo-3-(3-oxo-3,4-dihydro-2H-pyrido[3,2-b][1,4]oxazin-6-yl)-1-oxa-3,8-diazaspiro[4.5]decan-8-yl)methyl)-3-((5-oxopiperazin-2-yl)methoxy)-6,7-dihydro-5H-cyclopenta[c]pyridine-1-carbonitrile]",–,319 nM
"Cc1nc(Cl)nc2c1CC(CNCCC1CN(c3ccc4c(n3)NC(=O)CO4)C(=O)O1)C2 (stereo not drawn) [Example 385, 6-[5-[2-[(2-chloro-4-methyl-6,7-dihydro-5H-cyclopenta[d]pyrimidin-6-yl)methylamino]ethyl]-2-oxo-1,3-oxazolidin-3-yl]-4H-pyrido[3,2-b][1,4]oxazin-3-one]",–,923 nM
"Cc1nc(OCC2(N)CC2)c(C)c2c1CC(CNCCC1CN(c3ccc4c(n3)NC(=O)CO4)C(=O)O1)C2 (stereo not drawn) [Example 172, 6-[5-[2-[[3-[(1-aminocyclopropyl)methoxy]-1,4-dimethyl-6,7-dihydro-5H-cyclopenta[c]pyridin-6-yl]methylamino]ethyl]-2-oxo-1,3-oxazolidin-3-yl]-4H-pyrido[3,2-b][1,4]oxazin-3-one]",–,< 97.7 nM
"N#Cc1c(OCC2CNC2)ccc2c1CC(CNCCC1CN(c3ccc4c(n3)NC(=O)CO4)C(=O)O1)C2 (stereo not drawn) [Example 129, 5-(azetidin-3-ylmethoxy)-2-[[2-[2-oxo-3-(3-oxo-4H-pyrido[3,2-b][1,4]oxazin-6-yl)-1,3-oxazolidin-5-yl]ethylamino]methyl]-2,3-dihydro-1H-indene-4-carbonitrile; formic acid]",–,692 nM
"CC(N)COc1cc(C#N)c2c(c1)CC(CNCCC1CN(c3cnc4c(n3)NC(=O)CO4)C(=O)O1)C2 (stereo not drawn) [Example 193, 6-(2-aminopropoxy)-2-(((2-(2-oxo-3-(3-oxo-3,4-dihydro-2H-pyrazine[2,3-b][1,4]oxazin-6-yl)oxazolidin-5-yl)ethyl)amino)methyl)-2,3-dihydro-1H-indene-4-carbonitrile; 2,2,2-trifluoroacetic acid]",–,< 97.7 nM
"CNC(=O)COc1cc(C)c2c(c1C#N)CC(CNCCC1CN(c3cnc4c(n3)NC(=O)CO4)C(=O)O1)C2 (stereo not drawn) [Example 384, 2-[[4-cyano-7-methyl-2-[[2-[2-oxo-3-(3-oxo-4H-pyrazino[2,3-b][1,4]oxazin-6-yl)-1,3-oxazolidin-5-yl]ethylamino]methyl]-2,3-dihydro-1H-inden-5-yl]oxy]-N-methylacetamide]",–,167 nM

# The next lines start with the values.
IC50,IC50 [1],SMILES
< 97.7 nM,–,"NC(=O)COc1cc(F)c2c(c1)CC(CNCC[C@H]1CN(c3cnc4c(n3)NC(=O)CO4)C(=O)O1)C2 (single isomer, unassigned; isomer b) [Example 380]"
–,202 nM,"O=C1COc2ncc(N3CC(CCNCC4Cc5cc(OCc6cc[nH]n6)cc(F)c5C4)OC3=O)nc2N1 (stereo not drawn) [Example 320, 6-[5-[2-[[4-Fluoro-6-(1H-pyrazol-3-ylmethoxy)-2,3-dihydro-1H-inden-2-yl]methylamino]ethyl]-2-oxo-1,3-oxazolidin-3-yl]-4H-pyrazino[2,3-b][1,4]oxazin-3-one; formic acid]"
–,< 97.7 nM,"N[C@@H]1c2cccc(Cl)c2C[C@H]1CNCC[C@@H]1CN(c2cnc3c(n2)NC(=O)CO3)C(=O)O1 [Example 422, 6-[(5R)-5-[2-[[(1S,2S)-1-Amino-4-chloro-2,3-dihydro-1H-inden-2-yl]methylamino]ethyl]-2-oxo-1,3-oxazolidin-3-yl]-4H-pyrazino[2,3-b][1,4]oxazin-3-one]"
–,249 nM,"Cc1ncc(F)c2c1CC(CNCCc1nn(-c3ccc4c(c3)NC(=O)CO4)c(=O)o1)C2 (stereo not drawn) [Example 67, 6-[5-[2-[(4-fluoro-1-methyl-6,7-dihydro-5H-cyclopenta[c]pyridin-6-yl)methylamino]ethyl]-2-oxo-1,3,4-oxadiazol-3-yl]-4H-1,4-benzoxazin-3-one]"
–,< 97.7 nM,"Cc1ncc(Cl)c2c1CC(CNCCC1CN(c3ccc4c(n3)NC(=O)CO4)C(=O)O1)C2 (stereo not drawn) [Example 55, 6-[5-[2-[(4-chloro-1-methyl-6,7-dihydro-5H-cyclopenta[c]pyridin-6-yl)methylamino]ethyl]-2-oxo-1,3-oxazolidin-3-yl]-4H-pyrido[3,2-b][1,4]oxazin-3-one; formic acid]"
–,1110 nM,"Cc1nc(OCCCS(C)(=O)=O)c(C)c2c1CC(CNCCC1CN(c3ccc4c(n3)NC(=O)CO4)C(=O)O1)C2 (stereo not drawn) [Example 105, 6-[5-[2-[[1,4-dimethyl-3-(3-methylsulfonylpropoxy)-6,7-dihydro-5H-cyclopenta[c]pyridin-6-yl]methylamino]ethyl]-2-oxo-1,3-oxazolidin-3-yl]-4H-pyrido[3,2-b][1,4]oxazin-3-one]"
156 nM,–,"N#Cc1cccc2c1CC(CN1CCC3(CN(c4ccc5c(n4)NC(=O)CO5)C(=O)O3)C(CN)C1)C2 (racemic) [Example 252, 2-[[rac-5,6-trans-6-(Aminomethyl)-2-oxo-3-(3-oxo-4H-pyrido[3,2-b][1,4]oxazin-6-yl)-1-oxa-3,8-diazaspiro[4.5]decan-8-yl]methyl]-2,3-dihydro-1H-indene-4-carbonitrile; formic acid]"
–,< 97.7 nM,"Cc1nc(OCC2(N)CC2)c(C#N)c2c1CC(CN1CCC3(CC1)CN(c1ccc4c(n1)NC(=O)CO4)C(=O)O3)C2 (stereo not drawn) [Example 215, 3-[(1-aminocyclopropyl)methoxy]-1-methyl-6-[[2-oxo-3-(3-oxo-4H-pyrido[3,2-b][1,4]oxazin-6-yl)-1-oxa-3,8-diazaspiro[4.5]decan-8-yl]methyl]-6,7-dihydro-5H-cyclopenta[c]pyridine-4-carbonitrile]"
–,191 nM,"CC(N)COc1cc2c(c(Cl)n1)CC(CNCCC1CN(c3cnc4c(n3)NC(=O)CO4)C(=O)O1)C2 (stereo not drawn) [Example 145, 6-[5-[2-[[3-(2-aminopropoxy)-1-chloro-6,7-dihydro-5H-cyclopenta[c]pyridin-6-yl]methylamino]ethyl]-2-oxo-oxazolidin-3-yl]-4H-pyrazino[2,3-b][1,4]oxazin-3-one; formic acid]"
–,< 97.7 nM,"N#Cc1c(OCC2(N)CC2)ccc2c1CC(CNCCC1CN(c3ccc4c(n3)NC(=O)CO4)C(=O)O1)C2 (stereo not drawn) [Example 124, 5-[(1-aminocyclopropyl)methoxy]-2-[[2-[2-oxo-3-(3-oxo-4H-pyrido[3,2-b][1,4]oxazin-6-yl)-1,3-oxazolidin-5-yl]ethylamino]methyl]-2,3-dihydro-1H-indene-4-carbonitrile hydrochloride]"
–,< 97.7 nM,"N#Cc1cccc2c1CC(NCCCC1CN(c3cnc4c(n3)NC(=O)CO4)C(=O)O1)C2 (stereo not drawn) [Example 80, 2-[3-[2-oxo-3-(3-oxo-4H-pyrazino[2,3-b][1,4]oxazin-6-yl)-1,3-oxazolidin-5-yl]propylamino]-2,3-dihydro-1H-indene-4-carbonitrile]"
–,332 nM,"O=C1COc2ccc(N3CC(CCCNCC4Cc5cccc(Cl)c5C4)OC3=O)nc2N1 (stereo not drawn) [Example 2, 6-[5-[3-[(4-chloro-2,3-dihydro-1H-inden-2-yl)methylamino]propyl]-2-oxo-1,3-oxazolidin-3-yl]-4H-pyrido[3,2-b][1,4]oxazin-3-one]"

# Reference: patent US20230167127A1, “COMPOUNDS AND THEIR USE IN THE TREATMENT OF BACTERIAL INFECTION” (Hoffmann-La Roche Inc., priority 2020, published 2023)
